Data reported in PMC6309732 (ChemMedChem, 2016).

Legend:
[1] = target: T1, HIV-1 RT-associated RNase H (Human immunodeficiency virus type 1 group M subtype B, UniProt P04585); assay: HIV-1 DNA polymerase-independent RNase H activity determination; type: biochemical
[2] = Cytotoxicity in mock-infected MT-4 cells; type: cell-based; conditions: human
HIV-1 (IIIB strain) = assay: Antiviral assay, HIV-1; type: cell-based; conditions: acutely infected MT-4 cells; at concentrations less than cytotoxic
[3] = target: HIV-1 RT-associated RNA dependent DNA polymerase (Human immunodeficiency virus type 1 group M subtype B, UniProt P04585); assay: biochemical
[4] = target: T1, HIV-1 RT-associated RNase H; assay: RNase H assay with modified order of addition; type: biochemical; conditions: for Fold increase of IC50 versus the regular assay: inhibitor added after duplex substrate vs regular assay
HIV-2 (ROD strain) = assay: Antiviral assay, HIV-2; type: cell-based; conditions: acutely infected MT-4 cells; at concentrations less than cytotoxic
HIV-1 RT heterodimer = HIV-1 RT heterodimer (Human immunodeficiency virus type 1 group M subtype B, UniProt P04585); assay: Differential Scanning Fluorimetry; type: binding; conditions: 10 μM inhibitor, 300 nM HIV-1 RT; data not shown

SMILES | IC50 [1] [µM] | IC50 [3] [µM] | other results
COc1ccc(C(=O)Nc2sc3c(c2C(=O)Nc2ccccn2)CCCCC3)c(O)n1 [Compound 32, 2-Hydroxy-6-methoxy-N-(3-(pyridin-2-ylcarbamoyl)-5,6,7,8-tetrahydro-4H-cyclohepta[b]thiophen-2-yl)nicotinamide] | 15.1 ± 1.3 | – | –
Nc1ccc(C(=O)Nc2sc3c(c2C(=O)Nc2ccccn2)CCCCC3)cc1 [Compound 27, 2-(4-Aminobenzamido)-N-(pyridin-2-yl)-5,6,7,8-tetrahydro-4H-cyclohepta[b]thiophene-3-carboxamide] | 21.4 ± 4.4 | – | –
O=C(Nc1sc2c(c1C(=O)Nc1ccccn1)CCCCC2)c1ccccc1[N+](=O)[O-] [Compound 24, 2-(2-Nitrobenzamido)-N-(pyridin-2-yl)-5,6,7,8-tetrahydro-4H-cyclohepta[b]thiophene-3-carboxamide] | 53.5 ± 1.7 | – | –
COc1ccc(C(=O)Nc2sc3c(c2C(=O)Nc2ccccn2)CCCCC3)cc1OC [Compound 31, 2-(3,4-Dimethoxybenzamido)-N-(pyridin-2-yl)-5,6,7,8-tetrahydro-4H-cyclohepta[b]thiophene-3-carboxamide] | 4.01 ± 1 | > 50 | CC50 at 5 days [2]: 6.24 µM; Inhibition of HIV-1 (IIIB) replication (HIV-1 (IIIB strain)): unable to affect viral replication; IC50 [4]: 20 ± 7 µM; Fold increase of IC50 versus the regular assay [4]: 5 fold; Inhibition of HIV-2 (ROD) replication (HIV-2 (ROD strain)): unable to affect viral replication; Effect on Tm of the RT heterodimer (HIV-1 RT heterodimer): no decreased Tm; Fold decrease in RNase H potency relative to compound 33 ([1]; O-methylated hydroxyl groups vs catechol 33): 5 fold
CC(=O)Nc1sc2c(c1C(=O)Nc1ccccn1)CCCCC2 [Compound 35, 2-Acetamido-N-(pyridin-2-yl)-5,6,7,8-tetrahydro-4H-cyclohepta[b]thiophene-3-carboxamide] | > 100 | – | –
Nc1ccccc1C(=O)Nc1sc2c(c1C(=O)Nc1ccccn1)CCCCC2 [Compound 26, 2-(2-Aminobenzamido)-N-(pyridin-2-yl)-5,6,7,8-tetrahydro-4H-cyclohepta[b]thiophene-3-carboxamide] | 14.9 ± 4.1 | – | –
O=C(Nc1sc2c(c1C(=O)Nc1ccccc1F)CCCCC2)c1ccccn1 [Compound 37, N-(3-((2-Fluorophenyl)carbamoyl)-5,6,7,8-tetrahydro-4H-cyclohepta[b]thiophen-2-yl)picolinamide] | 13.7 ± 1.6 | – | –
O=C(Nc1sc2c(c1C(=O)Nc1ccccn1)CCCCC2)c1cccs1 [Compound 34, N-(Pyridin-2-yl)-2-(thiophene-2-carboxamido)-5,6,7,8-tetrahydro-4H-cyclohepta[b]thiophene-3-carboxamide] | 10.4 ± 1.96 | > 50 | –
COc1ccc(C(=O)Nc2sc3c(c2C(=O)Nc2ccccn2)CCCCC3)c(OC)n1 [Compound 30, 2,6-Dimethoxy-N-(3-(pyridin-2-ylcarbamoyl)-5,6,7,8-tetrahydro-4H-cyclohepta[b]thiophen-2-yl)nicotinamide] | 21.5 ± 1 | – | –
O=C(Cc1ccccc1F)Nc1sc2c(c1C(=O)Nc1ccccn1)CCCCC2 [Compound 36, 2-(2-(2-Fluorophenyl)acetamido)-N-(pyridin-2-yl)-5,6,7,8-tetrahydro-4H-cyclohepta[b]thiophene-3-carboxamide] | – | > 50 | –
O=C(Nc1sc2c(c1C(=O)Nc1ccccn1)CCCCC2)c1ccc(O)c(O)c1 [Compound 33, 2-(3,4-Dihydroxybenzamido)-N-(pyridin-2-yl)-5,6,7,8-tetrahydro-4H-cyclohepta[b]thiophene-3-carboxamide] | – | 20.9 ± 1.7 | CC50 at 5 days [2]: 30.7 µM; Inhibition of HIV-1 (IIIB) replication (HIV-1 (IIIB strain)): unable to affect viral replication; IC50 [4]: 5.3 ± 0.2 µM; Fold increase of IC50 versus the regular assay [4]: 5 fold; Inhibition of HIV-2 (ROD) replication (HIV-2 (ROD strain)): unable to affect viral replication; Effect on Tm of the RT heterodimer (HIV-1 RT heterodimer): no decreased Tm
O=C(Nc1sc2c(c1C(=O)Nc1ccccn1)CCCCC2)c1ccccc1Br [Compound 23, 2-(2-Bromobenzamido)-N-(pyridin-2-yl)-5,6,7,8-tetrahydro-4H-cyclohepta[b]thiophene-3-carboxamide] | 4.57 ± 0.01 | > 50 | –
Cc1ccccc1C(=O)Nc1sc2c(c1C(=O)Nc1ccccn1)CCCCC2 [Compound 29, 2-(2-Methylbenzamido)-N-(pyridin-2-yl)-5,6,7,8-tetrahydro-4H-cyclohepta[b]thiophene-3-carboxamide] | 18.3 ± 1.8 | – | –
